We go through one molecule from US12616713B2, “Methods for enhancing vascular density” (priority 2016, dated 2026).

“Also recorded” adds a separate entry of the source.

Assay [1] relates to C57BL/6J mice. In words: Skeletal muscle capillaries by CD31/laminin immunofluorescence in old mice. Type of assay: in vivo, mouse. As to conditions: NMN 400 mg/kg/day, two months. An excerpt:
SIRT1-iKO, SIRT1-Tg and SIRT1^STOP mice were described previously (Firestein et al., 2008, PLoS One 3, e2020; Price et al., 2012, Cell Metab 15, 675-690). Tie2Cre and Sirt1^flox/flox mice were purchased from Jackson Laboratory (Bar Harbor, ME). MCK-PGC-1α and MyogCre mice were gifts from Dr. Bruce Spiegelman (Dana Farber Cancer Center, MA) and Dr. Eric N. Olson (UT Southwestern, Dallas, TX), respectively. mT-STOP^flox/flox, Gfp mouse was generated in house by E.O.W., which consists of an allele driven by ubiquitous actin B promoter, which has loxP sites flanking membrane-targeted tandem dimer Tomato (mT) and transcriptional STOP cassette, followed by a GFP coding sequence. […] SIRT1-iKO mice were fed tamoxifen (360 mg/kg) diet for five weeks to elicit whole-body SIRT1 exon 4 excision as described previously (Price et al., 2012). […] NMN stock was changed twice per week and […]4137 was supplemented daily. Axitinib (30 mg/kg/day) was given via food and changed daily. Freshly isolated whole quadriceps and gastrocnemius muscle samples were mounted in OCT compound (Tissue-Tek), placed in an isopentane bath and slowly cooled in liquid nitrogen. Transverse sections at 20 μm-thickness were sectioned on a cryostat (Leica). The sections were fixed in pre-cooled acetone (-20° C.) for 10 min and washed with PBS. […] Slides were washed with PBST and then incubated with anti-rat Alexa Fluor 488-conjugated (Life Technologies) and anti-rabbit Alexa Fluor 594-conjugated (Life Technologies) antibodies diluted to 1:500 in blocking buffer for 2 h at room temperature. Slides were washed again with PBST and mounted with Fluoroshield with DAPI mounting medium (Sigma). Images were acquired using a confocal fluorescence microscope (Nikon A1). Quantification of capillaries and capillary density were performed using ImageJ software. TUNEL staining was performed in muscle sections using in situ BrdU-Red DNA fragmentation (TUNEL) assay kit (Abcam) as per manufacturer's protocol.

In assay [2] the test system is HUVECs. The experiment in a line: Tube formation assay, HUVECs after H2O2. It counts as cell-based, human. As to conditions: H2O2 150 μM 1 h, NMN 500 μM 10 h. The protocol:
Formation of tube networks was assessed as described before (Borradaile and Pickering, 2009, Aging Cell 8, 100-112). ECs were seeded at 10,000 cells per well in a 24-well plate (Corning) coated with 150 μL Cultrex reduced growth factor basement membrane extract (Trevigen). The cells were supplemented with C2C12 CM or EBM-2 medium containing VEGF (30 ng/mL) or FGF (30 ng/mL). NMN (0.5 mM) and NaHS (0.1 mM) were added to the media wherever mentioned. Following an 18 h-incubation, resulting tube networks were analyzed by light microscopy (Nikon Eclipse TiE). For tube formation assays with H2O2 treatment, cells were incubated with 150 μM H2O2 for 1 h before seeding and imaged after 10 h-incubation. The number of branch points and total length of tubule networks were quantified by ImageJ software.

Assay [3] has as its system HUVECs. In words: Wound scratch assay, HUVECs. It counts as cell-based, human. Particulars: Scr or SIRT1 siRNA HUVECs, H2O2 150 μM 1 h, NaHS 100 μM and/or NMN 500 μM, 6 h. As for the experimental part:
ECs were cultured until forming a confluent monolayer and a scratch was made using a 200 μL pipette tip. Then the cells were allowed to migrate+/−NaHS (0.1 mM) and +/−NMN (0.5 mM) in EGM-2 medium for 6 hrs. Images were taken at the same location using a brightfield inverted microscope (Olympus 2467) every 2 h. The area of gap closure was calculated using ImageJ software. In some experiments, HUVECs were transduced with Scr or SIRT1 siRNA and cultured until forming a confluent monolayer. The cells were exposed to H2O2 (150 μM) for 1 h and a scratch was made using a 200 μL pipette tip. Then the cells were allowed to migrate with PBS (vehicle), NaHS (100 μM) and/or NMN (500 μM) in EGM-2 medium for 6 h. Images were taken at the same location using a brightfield inverted microscope (Olympus 2467) every 2 h. The area of gap closure was calculated using ImageJ software.

In assay [4] the test system is C57BL/6J mice. The experiment in a line: Treadmill endurance testing. Type of assay: in vivo, mouse. As for the experimental part:
Endurance testing. Treadmill tests were carried out on a 1050-RM Exer 3/6 Open Treadmill (Columbus Instruments, OH). Mice were acclimatized to the treadmill system for 3 days prior to endurance testing by running at 10-15 m/min for 20 min. In low intensity endurance testing, the speed started at 5 m/min for 5 min (warm up), and then the speed was increased by 1 every minute until 21 m/min and kept constant. In high intensity endurance testing, the speed started at 13 m/min for 5 min (warm up) at 5° inclination, and then the speed was increased by 1 every minute until 20 m/min and kept constant for 20 min. Every 20 min, the speed was increased by 5 m/min and held constant for 20 min. Mice were considered exhausted when they sat on the shocker plate for more than 10 sec without attempting to reinitiate running.

Where [5] appears, read: 20-month old mice, low intensity treadmill test.

In the case of `NC(=O)c1ccc[n+]([C@@H]2O[C@H](COP(=O)([O-])O)[C@@H](O)[C@H]2O)c1` [NMN, nicotinamide mononucleotide], in the assay with C57BL/6J mice [1] (20-month old WT mice), the gastrocnemius capillarity result is recorded as “increased capillaries; also recorded: increased gastrocnemius capillarity”. For the same molecule, the gastrocnemius capillarity entry in the assay on C57BL/6J mice [1] (20-month old tamoxifen-treated SIRT1-iKO mice) is given as “not in SIRT1-iKO mice; also recorded: no change”. Further, in the assay on C57BL/6J mice [1] (old mice), the “number of capillaries and capillary density (quadriceps, gastrocnemius)” value is reported as “restored”. Besides, in the assay on HUVECs [2], the “VEGF mediated angiogenesis (tube formation) after treatment with H2O2” value was “promoted VEGF mediated angiogenesis”. In addition, in the assay on HUVECs [3], the “cell migration (percentage of closed gaps)” value is “had no effect”. Besides, in the assay on C57BL/6J mice [4] (20-month old mice, high-endurance exercise regimen), the “distance run further than untreated mice” value stood at 80%. Also, in the assay on C57BL/6J mice [4] (setting [5]), the “distance run until exhaustion” value came to 686 meters and the “low-intensity endurance, improvement over the untreated mice” value was 56%. For the same molecule, the “time and distance to exhaustion (endurance)” value with C57BL/6J mice [4] (31-month old mice, low intensity treadmill test) was “significant trend towards increased time and distance to exhaustion”. Besides, the “exercise capacity, including endurance” value with C57BL/6J mice [4] (mice (summary statement)) is reported as “increased exercise capacity”.
